Measured values: patent US20200239530A1, “COMPOUNDS AND METHODS OF MODULATING PROTEIN DEGRADATION” (Vividion Therapeutics, Inc., priority 2017, published 2020)

Assays:
[1] = molecular target: T1, TRMT1L TRMT1-like protein (Homo sapiens, UniProt Q7Z2T5); test: Cysteine liganding, probe competition; format: binding
T1 construct: Cells were resuspended in cold PBS on ice and sonicated with a probe sonicator to achieve lysis; endogenous in cells
T1 sequence (Q7Z2T5 1-733): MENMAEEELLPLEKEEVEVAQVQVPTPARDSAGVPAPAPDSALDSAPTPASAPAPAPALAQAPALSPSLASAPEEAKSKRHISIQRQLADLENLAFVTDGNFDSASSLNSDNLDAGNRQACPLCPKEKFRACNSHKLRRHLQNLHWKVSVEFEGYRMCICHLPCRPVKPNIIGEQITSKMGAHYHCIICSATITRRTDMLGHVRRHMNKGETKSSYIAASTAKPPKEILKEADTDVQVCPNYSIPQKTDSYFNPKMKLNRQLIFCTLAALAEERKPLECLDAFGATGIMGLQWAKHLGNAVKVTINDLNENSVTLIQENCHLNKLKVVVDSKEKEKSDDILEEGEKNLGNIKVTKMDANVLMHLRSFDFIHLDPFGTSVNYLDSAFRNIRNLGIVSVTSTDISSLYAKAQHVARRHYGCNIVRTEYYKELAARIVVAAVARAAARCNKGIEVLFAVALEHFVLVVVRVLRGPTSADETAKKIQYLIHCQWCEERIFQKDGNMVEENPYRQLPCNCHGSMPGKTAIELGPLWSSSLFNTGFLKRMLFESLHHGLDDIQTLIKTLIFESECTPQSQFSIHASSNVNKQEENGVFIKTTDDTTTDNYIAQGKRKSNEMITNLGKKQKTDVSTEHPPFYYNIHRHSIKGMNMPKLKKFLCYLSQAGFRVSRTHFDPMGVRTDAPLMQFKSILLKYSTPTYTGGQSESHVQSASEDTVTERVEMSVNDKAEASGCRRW
Method in brief: (§1)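 Steps: sonicate cells in cold PBS; treat 5 mg/ml lysate with compound (25° C, 1 hr); add desthiobiotin iodoacetamide probe from a 10 mM stock (25° C, 1 hr); precipitate, reduce, alkylate, digest with trypsin; capture labelled peptides on streptavidin for analysis.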

[2] = molecular target: T2, FASTKD5 FAST kinase domain-containing protein 5 (Homo sapiens, UniProt Q7L8L6); test: Cysteine liganding, probe competition; format: binding
T2 construct: 200 μL of lysate containing 5 mg/ml proteome was treated with 2 μL of 100× compound stock; endogenous in cells
T2 sequence (Q7L8L6 28-764): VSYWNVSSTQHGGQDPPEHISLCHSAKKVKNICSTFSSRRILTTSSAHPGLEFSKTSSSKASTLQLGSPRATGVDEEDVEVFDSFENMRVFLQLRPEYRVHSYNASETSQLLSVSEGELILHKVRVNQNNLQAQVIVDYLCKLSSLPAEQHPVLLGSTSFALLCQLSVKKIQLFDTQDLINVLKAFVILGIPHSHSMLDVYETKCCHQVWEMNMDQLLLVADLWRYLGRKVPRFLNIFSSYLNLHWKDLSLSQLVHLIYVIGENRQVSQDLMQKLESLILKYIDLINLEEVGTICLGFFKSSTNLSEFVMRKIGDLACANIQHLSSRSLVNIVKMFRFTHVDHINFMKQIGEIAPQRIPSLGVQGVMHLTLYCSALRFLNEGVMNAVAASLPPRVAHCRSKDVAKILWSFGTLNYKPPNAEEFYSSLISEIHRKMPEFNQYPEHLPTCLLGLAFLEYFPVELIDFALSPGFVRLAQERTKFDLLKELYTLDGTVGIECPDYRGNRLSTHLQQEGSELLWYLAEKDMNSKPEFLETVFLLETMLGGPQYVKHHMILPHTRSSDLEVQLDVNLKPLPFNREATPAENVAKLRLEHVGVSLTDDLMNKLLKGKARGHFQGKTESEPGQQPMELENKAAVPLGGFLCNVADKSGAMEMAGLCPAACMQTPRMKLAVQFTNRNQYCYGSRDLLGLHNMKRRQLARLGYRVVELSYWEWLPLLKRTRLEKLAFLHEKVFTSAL
Method in brief: as §1

[3] = uniprot Q7Z2T5, in % (unit assumed)

Compound	Liganded ([1]; TRMT1L Res# 239, uniprot Q7Z2T5)	Liganded ([2]; FASTKD5 Res# 670, uniprot Q7L8L6)	100 ave ([1]; uniprot Q7Z2T5)	500 ave ([1]; uniprot Q7Z2T5)	100 Max [1, 3]	500 Max [1, 3]	100 Max ([2]; uniprot Q7L8L6)	100 ave ([2]; uniprot Q7L8L6)	500 Max ([2]; uniprot Q7L8L6)	500 ave ([2]; uniprot Q7L8L6)
COc1ccc2c(c1)CCCN2C(=O)CCl [KB02]	YES	YES								
O=C(CCl)Nc1cc(C(F)(F)F)cc(C(F)(F)F)c1 [KBO3]			−17.83	36.38	−4.62	36.38	14.75	14.55	57.23	45.06
